Experimental data taken from patent publication US20260042731A1, “(2,4-DICHLOROPHENOXY)ACETIC ACID ANALOGS” (CORTEVA AGRISCIENCE LLC, priority 2022, published 2026).
Read-outs that look alike come from different tables or passages of the source.

Columns and labels:
[1] = system: Chenopodium album (CHEAL), common lambsquarters; experiment: Postemergence herbicide evaluation, growth of Chenopodium album (CHEAL); assay type: in vivo; conditions: Chenopodium album, post-emergence, percent reduction in plant size vs untreated control, read-out: Ave. CHEAL; for pest or weed control at 280 g/ha: 280 g ae/ha; for pest or weed control at 560 g/ha: 560 g ae/ha
[2] = system: glyphosate resistant Conyza canadensis (L.) (ERICA), horseweed; experiment: Postemergence herbicide evaluation, growth of Conyza canadensis (ERICA); assay type: in vivo; conditions: Erigeron canadensis, post-emergence, percent reduction in plant size vs untreated control, read-out: Ave. ERICA; for pest or weed control at 280 g/ha: 280 g ae/ha; for pest or weed control at 560 g/ha: 560 g ae/ha
[3] = system: Ambrosia artemisiifolia (AMBEL), common ragweed; experiment: Postemergence herbicide evaluation, growth of Ambrosia artemisiifolia (AMBEL); assay type: in vivo; conditions: Ambrosia artemisiifolia, post-emergence, percent reduction in plant size vs untreated control, read-out: AVE. AMBEL; for pest or weed control at 280 g/ha: 280 g ae/ha; for pest or weed control at 560 g/ha: 560 g ae/ha
[4] = Volatility of compounds measured by thermogravimetric analysis (TGA); assay type: physicochemical
[5] = system: weeds ABUTH, AMATA, AMBEL, CHEAL, ERICA; experiment: Postemergence herbicide evaluation, overall average % weed control across ABUTH, AMATA, AMBEL, CHEAL and ERICA; assay type: in vivo; conditions: post-emergence, average over five weeds, read-out: Overall Ave % Weed Control; for pest or weed control at 280 g/ha: 280 g ae/ha; for pest or weed control at 560 g/ha: 560 g ae/ha
[6] = system: Amaranthus rudis (AMATA), tall water hemp; experiment: Postemergence herbicide evaluation, growth of Amaranthus rudis (AMATA); assay type: in vivo; conditions: Amaranthus tuberculatus, post-emergence, percent reduction in plant size vs untreated control, read-out: Ave. AMATA; for pest or weed control at 280 g/ha: 280 g ae/ha; for pest or weed control at 560 g/ha: 560 g ae/ha
[7] = system: Abutilon theophrasti (ABUTH), velvetleaf; experiment: Postemergence herbicide evaluation, growth of Abutilon theophrasti (ABUTH); assay type: in vivo; conditions: Abutilon theophrasti, post-emergence, percent reduction in plant size vs untreated control, read-out: AVE. ABUTH; for pest or weed control at 280 g/ha: 280 g ae/ha; for pest or weed control at 560 g/ha: 560 g ae/ha

SMILES | pest or weed control at 280 g/ha ([1]; 168 h, 7 DAA) [%] | pest or weed control at 560 g/ha ([1]; 168 h, 7 DAA) [%] | pest or weed control at 280 g/ha ([1]; 336 h, 14 DAA) [%] | pest or weed control at 560 g/ha ([1]; 336 h, 14 DAA) [%] | pest or weed control at 280 g/ha ([1]; 504 h, 21 DAA) [%] | pest or weed control at 560 g/ha ([1]; 504 h, 21 DAA) [%] | pest or weed control at 280 g/ha ([2]; 168 h, 7 DAA) [%] | pest or weed control at 560 g/ha ([2]; 168 h, 7 DAA) [%] | pest or weed control at 280 g/ha ([2]; 336 h, 14 DAA) [%] | pest or weed control at 560 g/ha ([2]; 336 h, 14 DAA) [%] | pest or weed control at 280 g/ha ([2]; 504 h, 21 DAA) [%] | pest or weed control at 560 g/ha ([2]; 504 h, 21 DAA) [%] | pest or weed control at 280 g/ha ([3]; 168 h, 7 DAA) [%] | pest or weed control at 560 g/ha ([3]; 168 h, 7 DAA) [%] | pest or weed control at 280 g/ha ([3]; 336 h, 14 DAA) [%] | pest or weed control at 560 g/ha ([3]; 336 h, 14 DAA) [%] | pest or weed control at 280 g/ha ([3]; 504 h, 21 DAA) [%] | pest or weed control at 560 g/ha ([3]; 504 h, 21 DAA) [%] | TGA Data (rate of weight loss, volatility) [4] [µg/min] | pest or weed control at 280 g/ha ([5]; 168 h, 7 DAA) [%] | also measured
O=C(COc1cc(Cl)cc(Cl)c1)OCCCOC(=O)COc1ccc(Cl)cc1Cl [Compound B7] | 82.5 | 77.5 | 96.5 | 96.5 | 90 | 87.5 | 82.5 | 85 | 70 | 91.5 | 99 | 98.5 | 62.5 | 72.5 | 57.5 | 67.5 | 77.5 | 100 | 0.03572 | 61 | pest or weed control at 560 g/ha ([5]; 168 h, 7 DAA): 68%; pest or weed control at 280 g/ha ([5]; 336 h, 14 DAA): 65.3%; pest or weed control at 560 g/ha ([5]; 336 h, 14 DAA): 74.1%; pest or weed control at 280 g/ha ([5]; 504 h, 21 DAA): 70.3%; pest or weed control at 560 g/ha ([5]; 504 h, 21 DAA): 76.2%; pest or weed control at 280 g/ha ([6]; 168 h, 7 DAA): 57.5%; pest or weed control at 560 g/ha ([6]; 168 h, 7 DAA): 67.5%; pest or weed control at 280 g/ha ([6]; 336 h, 14 DAA): 85%; pest or weed control at 560 g/ha ([6]; 336 h, 14 DAA): 85%; pest or weed control at 280 g/ha ([6]; 504 h, 21 DAA): 70%; pest or weed control at 560 g/ha ([6]; 504 h, 21 DAA): 52.5%; pest or weed control at 280 g/ha ([7]; 168 h, 7 DAA): 20%; pest or weed control at 560 g/ha ([7]; 168 h, 7 DAA): 37.5%; pest or weed control at 280 g/ha ([7]; 336 h, 14 DAA): 17.5%; pest or weed control at 560 g/ha ([7]; 336 h, 14 DAA): 30%; pest or weed control at 280 g/ha ([7]; 504 h, 21 DAA): 15%; pest or weed control at 560 g/ha ([7]; 504 h, 21 DAA): 42.5%
O=C(COc1ccc(Cl)cc1Cl)Nc1ccnc(Cl)c1 [Compound D13] | 77.5 | 75 | 95 | 98 | 90 | 92.5 | 80 | 82.5 | 92.5 | 91.5 | 97.5 | 99 | 70 | 75 | 75 | 91 | 94 | 50 | 0.06009 | 67 | pest or weed control at 560 g/ha ([5]; 168 h, 7 DAA): 68%; pest or weed control at 280 g/ha ([5]; 336 h, 14 DAA): 78.7%; pest or weed control at 560 g/ha ([5]; 336 h, 14 DAA): 79.9%; pest or weed control at 280 g/ha ([5]; 504 h, 21 DAA): 83.8%; pest or weed control at 560 g/ha ([5]; 504 h, 21 DAA): 74.2%; pest or weed control at 280 g/ha ([6]; 168 h, 7 DAA): 72.5%; pest or weed control at 560 g/ha ([6]; 168 h, 7 DAA): 75%; pest or weed control at 280 g/ha ([6]; 336 h, 14 DAA): 91%; pest or weed control at 560 g/ha ([6]; 336 h, 14 DAA): 84%; pest or weed control at 280 g/ha ([6]; 504 h, 21 DAA): 80%; pest or weed control at 560 g/ha ([6]; 504 h, 21 DAA): 92%; pest or weed control at 280 g/ha ([7]; 168 h, 7 DAA): 35%; pest or weed control at 560 g/ha ([7]; 168 h, 7 DAA): 32.5%; pest or weed control at 280 g/ha ([7]; 336 h, 14 DAA): 40%; pest or weed control at 560 g/ha ([7]; 336 h, 14 DAA): 35%; pest or weed control at 280 g/ha ([7]; 504 h, 21 DAA): 57.5%; pest or weed control at 560 g/ha ([7]; 504 h, 21 DAA): 37.5%
Cc1cc(NC(=O)COc2ccc(Cl)cc2Cl)n(C)n1 [Compound D14] | 72.5 | 75 | 96.5 | 90 | 95 | 100 | 82.5 | 72.5 | 94 | 94 | 98.5 | 100 | 80 | 75 | 72.5 | 97 | 100 | 100 | 0.01234 | 69.5 | pest or weed control at 560 g/ha ([5]; 168 h, 7 DAA): 69.5%; pest or weed control at 280 g/ha ([5]; 336 h, 14 DAA): 79.6%; pest or weed control at 560 g/ha ([5]; 336 h, 14 DAA): 85%; pest or weed control at 280 g/ha ([5]; 504 h, 21 DAA): 83.7%; pest or weed control at 560 g/ha ([5]; 504 h, 21 DAA): 91.5%; pest or weed control at 280 g/ha ([6]; 168 h, 7 DAA): 75%; pest or weed control at 560 g/ha ([6]; 168 h, 7 DAA): 75%; pest or weed control at 280 g/ha ([6]; 336 h, 14 DAA): 90%; pest or weed control at 560 g/ha ([6]; 336 h, 14 DAA): 91.5%; pest or weed control at 280 g/ha ([6]; 504 h, 21 DAA): 72.5%; pest or weed control at 560 g/ha ([6]; 504 h, 21 DAA): 92.5%; pest or weed control at 280 g/ha ([7]; 168 h, 7 DAA): 37.5%; pest or weed control at 560 g/ha ([7]; 168 h, 7 DAA): 50%; pest or weed control at 280 g/ha ([7]; 336 h, 14 DAA): 45%; pest or weed control at 560 g/ha ([7]; 336 h, 14 DAA): 52.5%; pest or weed control at 280 g/ha ([7]; 504 h, 21 DAA): 52.5%; pest or weed control at 560 g/ha ([7]; 504 h, 21 DAA): 65%
